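GI50 is the concentration that inhibits growth by half. TGI: total growth inhibition.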
Tests used:
Experiment in all cases: DTP human tumour cell line panel, 384-well format
MDA-MB-231 breast = tested on: MDA-MB-231 breast
TK-10 renal = tested on: TK-10 renal
KM12 colon = tested on: KM12 colon
NCI-H226 lung = tested on: NCI-H226 lung
SN12C renal = tested on: SN12C renal
BT-549 breast = tested on: BT-549 breast
IGROV1 ovarian = tested on: IGROV1 ovarian
OVCAR-4 ovarian = tested on: OVCAR-4 ovarian
RPMI-8226 leukemia = tested on: RPMI-8226 leukemia
NCI-H23 lung = tested on: NCI-H23 lung
SF-295 CNS = tested on: SF-295 CNS
A498 renal = tested on: A498 renal
SK-MEL-28 melanoma = tested on: SK-MEL-28 melanoma
MDA-MB-468 breast = tested on: MDA-MB-468 breast
UACC-257 melanoma = tested on: UACC-257 melanoma
OVCAR-8 ovarian = tested on: OVCAR-8 ovarian
NCI-H460 NSCLC = tested on: NCI-H460 NSCLC
OVCAR-5 ovarian = tested on: OVCAR-5 ovarian
SR leukemia = tested on: SR leukemia
UO-31 renal = tested on: UO-31 renal
A549 NSCLC = tested on: A549 NSCLC
LOX IMVI melanoma = tested on: LOX IMVI melanoma
U251 glioblastoma = tested on: U251 glioblastoma
SK-OV-3 ovarian = tested on: SK-OV-3 ovarian
HOP-62 NSCLC = tested on: HOP-62 NSCLC
SK-MEL-2 melanoma = tested on: SK-MEL-2 melanoma
SNB-75 CNS = tested on: SNB-75 CNS
SF-539 CNS = tested on: SF-539 CNS
MOLT-4 leukemia = tested on: MOLT-4 leukemia
MALME-3M melanoma = tested on: MALME-3M melanoma
NCI-H522 lung = tested on: NCI-H522 lung
K-562 leukemia = tested on: K-562 leukemia
SF-268 CNS = tested on: SF-268 CNS
786-0 renal = tested on: 786-0 renal
UACC-62 melanoma = tested on: UACC-62 melanoma
NCI/ADR-RES ovarian = tested on: NCI/ADR-RES ovarian
SW-620 colon = tested on: SW-620 colon
ACHN renal = tested on: ACHN renal
RXF 393 renal = tested on: RXF 393 renal
HCC-2998 colon = tested on: HCC-2998 colon
PC-3 prostate = tested on: PC-3 prostate
OVCAR-3 ovarian = tested on: OVCAR-3 ovarian
HCT-15 colon = tested on: HCT-15 colon
CCRF-CEM leukemia = tested on: CCRF-CEM leukemia
CAKI-1 renal = tested on: CAKI-1 renal
NCI-H322M lung = tested on: NCI-H322M lung
MCF7 breast = tested on: MCF7 breast

CNC(=O)c1cc(Oc2ccc(NC(=O)Nc3ccc(Cl)c(C(F)(F)F)c3)cc2)ccn1
GI50 (MDA-MB-231 breast): 1.82 µM
TGI (MDA-MB-231 breast): 3.47 µM
GI50 (TK-10 renal): 5.09 µM
TGI (TK-10 renal): 17.7 µM
GI50 (KM12 colon): 0.413 µM
TGI (KM12 colon): 2.32 µM
GI50 (NCI-H226 lung): 1.46 µM
TGI (NCI-H226 lung): 3.28 µM
GI50 (SN12C renal): 2.47 µM
TGI (SN12C renal): 5.66 µM
GI50 (BT-549 breast): 2.29 µM
TGI (BT-549 breast): 4.04 µM
GI50 (IGROV1 ovarian): 2.46 µM
TGI (IGROV1 ovarian): 5.91 µM
GI50 (OVCAR-4 ovarian): 3.59 µM
TGI (OVCAR-4 ovarian): 6.84 µM
GI50 (RPMI-8226 leukemia): 1.48 µM
TGI (RPMI-8226 leukemia): 2.82 µM
GI50 (NCI-H23 lung): 1.56 µM
TGI (NCI-H23 lung): 3.65 µM
GI50 (SF-295 CNS): 2.07 µM
TGI (SF-295 CNS): 4.2 µM
GI50 (A498 renal): 2.37 µM
TGI (A498 renal): 4.74 µM
GI50 (SK-MEL-28 melanoma): 2.15 µM
TGI (SK-MEL-28 melanoma): 4.34 µM
GI50 (MDA-MB-468 breast): 1.5 µM
TGI (MDA-MB-468 breast): 3.35 µM
GI50 (UACC-257 melanoma): 2.32 µM
TGI (UACC-257 melanoma): 4.62 µM
GI50 (OVCAR-8 ovarian): 2.09 µM
TGI (OVCAR-8 ovarian): 4.24 µM
GI50 (NCI-H460 NSCLC): 2.1 µM
TGI (NCI-H460 NSCLC): 4.25 µM
GI50 (OVCAR-5 ovarian): 2.69 µM
TGI (OVCAR-5 ovarian): 6.59 µM
GI50 (SR leukemia): 2.1 µM
TGI (SR leukemia): 3.55 µM
GI50 (UO-31 renal): 0.748 µM
TGI (UO-31 renal): 1.44 µM
GI50 (A549 NSCLC): 2.95 µM
TGI (A549 NSCLC): 8.89 µM
GI50 (LOX IMVI melanoma): 2.19 µM
TGI (LOX IMVI melanoma): 4.56 µM
GI50 (U251 glioblastoma): 2 µM
TGI (U251 glioblastoma): 3.74 µM
GI50 (SK-OV-3 ovarian): 3.93 µM
TGI (SK-OV-3 ovarian): 10.4 µM
GI50 (HOP-62 NSCLC): 1.84 µM
TGI (HOP-62 NSCLC): 3.42 µM
GI50 (SK-MEL-2 melanoma): 2.05 µM
TGI (SK-MEL-2 melanoma): 3.49 µM
GI50 (SNB-75 CNS): 3.21 µM
TGI (SNB-75 CNS): 5.92 µM
GI50 (SF-539 CNS): 1.69 µM
TGI (SF-539 CNS): 3.54 µM
GI50 (MOLT-4 leukemia): 1.66 µM
TGI (MOLT-4 leukemia): 3.06 µM
GI50 (MALME-3M melanoma): 2.01 µM
TGI (MALME-3M melanoma): 4.12 µM
GI50 (NCI-H522 lung): 2.04 µM
TGI (NCI-H522 lung): 4.71 µM
GI50 (K-562 leukemia): 1.26 µM
TGI (K-562 leukemia): 2.55 µM
GI50 (SF-268 CNS): 2.22 µM
TGI (SF-268 CNS): 4.71 µM
GI50 ([…]-0 renal): 1.89 µM
TGI (786-0 renal): 3.7 µM
GI50 (UACC-62 melanoma): 2.08 µM
TGI (UACC-62 melanoma): 4.06 µM
GI50 (NCI/ADR-RES ovarian): 2.12 µM
TGI (NCI/ADR-RES ovarian): 4.39 µM
GI50 (SW-620 colon): 2.17 µM
TGI (SW-620 colon): 4.54 µM
GI50 (ACHN renal): 2.71 µM
TGI (ACHN renal): 6.37 µM
GI50 (RXF 393 renal): 2.2 µM
TGI (RXF 393 renal): 4.43 µM
GI50 (HCC-2998 colon): 2.13 µM
TGI (HCC-2998 colon): 3.86 µM
GI50 (PC-3 prostate): 2.71 µM
TGI (PC-3 prostate): 5.91 µM
GI50 (OVCAR-3 ovarian): 2.28 µM
TGI (OVCAR-3 ovarian): 4.38 µM
GI50 (HCT-15 colon): 1.92 µM
TGI (HCT-15 colon): 4.03 µM
GI50 (CCRF-CEM leukemia): 1.59 µM
TGI (CCRF-CEM leukemia): 2.95 µM
GI50 (CAKI-1 renal): 2.19 µM
TGI (CAKI-1 renal): 4.74 µM
GI50 (NCI-H322M lung): 2.61 µM
TGI (NCI-H322M lung): 5.16 µM
GI50 (MCF7 breast): 2.14 µM
TGI (MCF7 breast): 5 µM

From PubChem BioAssay (NCI)
